# Results taken from the kinase profiling compilation of Christmann-Franck et al. (2016).
# Molecular target: CaMK1 (human) (UniProt Q14012)
# Experiment: KINOMEscan competition binding
# Settings: compound 10.0 µM
# Chain of CaMK1 (human) (Q14012 whole entry, looked up): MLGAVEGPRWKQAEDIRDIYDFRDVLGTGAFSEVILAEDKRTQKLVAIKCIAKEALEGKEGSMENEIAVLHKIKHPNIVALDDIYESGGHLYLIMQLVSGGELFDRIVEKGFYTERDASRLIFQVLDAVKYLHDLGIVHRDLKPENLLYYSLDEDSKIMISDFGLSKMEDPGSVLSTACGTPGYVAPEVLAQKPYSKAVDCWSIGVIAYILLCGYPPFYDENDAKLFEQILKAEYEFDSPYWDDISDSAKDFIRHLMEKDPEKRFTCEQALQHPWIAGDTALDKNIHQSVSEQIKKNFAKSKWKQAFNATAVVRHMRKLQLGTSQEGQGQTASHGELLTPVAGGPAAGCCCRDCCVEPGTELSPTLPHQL
row,"kinase still bound, per cent of control [%]",SMILES
1,1.4,COc1cc(N2CCC(N3CCN(C)CC3)CC2)ccc1Nc1ncc(Cl)c(Nc2ccccc2S(=O)(=O)C(C)C)n1
2,0,CCN1CCN(Cc2ccc(NC(=O)c3ccc(C)c(Oc4ccnc5[nH]ccc45)c3)cc2C(F)(F)F)CC1

row,SMILES,"kinase still bound, per cent of control [%]"
1,CCOc1cc(N2CCC(N3CCCCC3)CC2)ccc1Nc1nc(Nc2ccccc2S(=O)(=O)C(C)C)c2cn[nH]c2n1,4.6

# Molecular target: DAPK2 (human) (UniProt Q9UIK4)
# Experiment: KINOMEscan competition binding
# Settings: compound 10.0 µM
# Chain of DAPK2 (human) (Q9UIK4 whole entry, looked up): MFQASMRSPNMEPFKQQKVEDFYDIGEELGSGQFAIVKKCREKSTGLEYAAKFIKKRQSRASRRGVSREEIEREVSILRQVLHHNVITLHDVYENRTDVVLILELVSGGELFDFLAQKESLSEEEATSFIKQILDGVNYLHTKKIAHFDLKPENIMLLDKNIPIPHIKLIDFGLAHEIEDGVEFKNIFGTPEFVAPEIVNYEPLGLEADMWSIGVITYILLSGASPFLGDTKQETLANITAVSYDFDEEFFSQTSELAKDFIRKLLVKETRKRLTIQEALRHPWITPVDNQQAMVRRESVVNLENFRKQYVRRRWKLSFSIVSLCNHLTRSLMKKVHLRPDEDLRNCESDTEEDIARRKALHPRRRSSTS
row,SMILES,"kinase still bound, per cent of control [%]"
1,CCN1CCN(Cc2ccc(NC(=O)c3ccc(C)c(/C=C/c4cnc(Nc5cc(N6CCNCC6)nc(C)n5)cn4)c3)cc2C(F)(F)F)CC1,66
2,COc1cc(N2CCC(N3CCN(C)CC3)CC2)ccc1Nc1ncc(Cl)c(Nc2ccccc2S(=O)(=O)C(C)C)n1,12
3,CCOc1cc(N2CCC(N3CCCCC3)CC2)ccc1Nc1nc(Nc2ccccc2S(=O)(=O)C(C)C)c2cn[nH]c2n1,64

# Molecular target: EIF2AK2 (human) (UniProt P19525)
# Experiment: KINOMEscan competition binding
# Settings: compound 10.0 µM
row,SMILES,"kinase still bound, per cent of control [%]"
1,CCN1CCN(Cc2ccc(NC(=O)c3ccc(C)c(/C=C/c4cnc(Nc5cc(N6CCNCC6)nc(C)n5)cn4)c3)cc2C(F)(F)F)CC1,80
2,COc1cc(N2CCC(N3CCN(C)CC3)CC2)ccc1Nc1ncc(Cl)c(Nc2ccccc2S(=O)(=O)C(C)C)n1,40
3,CCOc1cc(N2CCC(N3CCCCC3)CC2)ccc1Nc1nc(Nc2ccccc2S(=O)(=O)C(C)C)c2cn[nH]c2n1,100

# Molecular target: MAP3K7 (human) (UniProt O43318)
# Experiment: KINOMEscan competition binding
# Settings: compound 10.0 µM
# Chain of MAP3K7 (human) (O43318 whole entry, looked up): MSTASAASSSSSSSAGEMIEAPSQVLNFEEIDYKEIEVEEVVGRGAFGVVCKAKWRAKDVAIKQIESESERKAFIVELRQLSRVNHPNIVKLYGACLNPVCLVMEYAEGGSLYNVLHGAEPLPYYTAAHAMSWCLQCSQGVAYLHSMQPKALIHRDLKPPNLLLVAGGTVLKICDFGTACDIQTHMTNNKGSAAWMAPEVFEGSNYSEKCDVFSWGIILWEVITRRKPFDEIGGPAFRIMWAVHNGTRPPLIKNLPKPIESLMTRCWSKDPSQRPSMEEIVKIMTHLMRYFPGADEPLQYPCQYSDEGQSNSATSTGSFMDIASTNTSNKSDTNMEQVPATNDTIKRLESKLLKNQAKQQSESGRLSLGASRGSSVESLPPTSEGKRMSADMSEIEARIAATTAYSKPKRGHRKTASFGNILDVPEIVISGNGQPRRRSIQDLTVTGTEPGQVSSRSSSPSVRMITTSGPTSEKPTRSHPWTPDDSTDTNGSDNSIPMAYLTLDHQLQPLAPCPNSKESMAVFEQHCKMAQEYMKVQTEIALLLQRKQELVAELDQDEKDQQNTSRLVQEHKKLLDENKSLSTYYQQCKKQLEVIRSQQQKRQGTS
row,SMILES,"kinase still bound, per cent of control [%]"
1,CCN1CCN(Cc2ccc(NC(=O)c3ccc(C)c(/C=C/c4cnc(Nc5cc(N6CCNCC6)nc(C)n5)cn4)c3)cc2C(F)(F)F)CC1,0.75
2,COc1cc(N2CCC(N3CCN(C)CC3)CC2)ccc1Nc1ncc(Cl)c(Nc2ccccc2S(=O)(=O)C(C)C)n1,2.2
3,CCOc1cc(N2CCC(N3CCCCC3)CC2)ccc1Nc1nc(Nc2ccccc2S(=O)(=O)C(C)C)c2cn[nH]c2n1,59

# Molecular target: CAMK2D (human) (UniProt Q13557)
# Experiment: KINOMEscan competition binding
# Settings: compound 10.0 µM
# Chain of CAMK2D (human) (Q13557 whole entry, looked up): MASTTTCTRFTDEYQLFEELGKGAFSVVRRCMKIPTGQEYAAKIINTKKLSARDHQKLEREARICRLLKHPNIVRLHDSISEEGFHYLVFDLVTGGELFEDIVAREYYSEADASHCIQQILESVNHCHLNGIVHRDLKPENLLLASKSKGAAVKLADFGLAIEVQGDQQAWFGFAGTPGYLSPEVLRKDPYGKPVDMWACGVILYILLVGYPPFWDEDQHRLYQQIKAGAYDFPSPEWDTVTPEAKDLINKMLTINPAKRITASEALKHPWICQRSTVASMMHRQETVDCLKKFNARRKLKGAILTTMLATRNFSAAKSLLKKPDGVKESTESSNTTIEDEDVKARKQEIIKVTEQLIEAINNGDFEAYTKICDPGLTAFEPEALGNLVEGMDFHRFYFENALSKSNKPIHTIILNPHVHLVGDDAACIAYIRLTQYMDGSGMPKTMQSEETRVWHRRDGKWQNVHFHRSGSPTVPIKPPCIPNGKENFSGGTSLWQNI
row,SMILES,"kinase still bound, per cent of control [%]"
1,CCN1CCN(Cc2ccc(NC(=O)c3ccc(C)c(/C=C/c4cnc(Nc5cc(N6CCNCC6)nc(C)n5)cn4)c3)cc2C(F)(F)F)CC1,100
2,COc1cc(N2CCC(N3CCN(C)CC3)CC2)ccc1Nc1ncc(Cl)c(Nc2ccccc2S(=O)(=O)C(C)C)n1,4.1
3,CCOc1cc(N2CCC(N3CCCCC3)CC2)ccc1Nc1nc(Nc2ccccc2S(=O)(=O)C(C)C)c2cn[nH]c2n1,34

# Molecular target: STK36 (human) (UniProt Q9NRP7)
# Experiment: KINOMEscan competition binding
# Settings: compound 10.0 µM
row,SMILES,"kinase still bound, per cent of control [%]"
1,CCN1CCN(Cc2ccc(NC(=O)c3ccc(C)c(/C=C/c4cnc(Nc5cc(N6CCNCC6)nc(C)n5)cn4)c3)cc2C(F)(F)F)CC1,0.1
2,COc1cc(N2CCC(N3CCN(C)CC3)CC2)ccc1Nc1ncc(Cl)c(Nc2ccccc2S(=O)(=O)C(C)C)n1,5.8
3,CCOc1cc(N2CCC(N3CCCCC3)CC2)ccc1Nc1nc(Nc2ccccc2S(=O)(=O)C(C)C)c2cn[nH]c2n1,100
4,CCN1CCN(Cc2ccc(NC(=O)c3ccc(C)c(Oc4ccnc5[nH]ccc45)c3)cc2C(F)(F)F)CC1,0.2

# Molecular target: PRKG1 (human) (UniProt Q13976)
# Experiment: KINOMEscan competition binding
# Settings: compound 10.0 µM
# Chain of PRKG1 (human) (Q13976 whole entry, looked up): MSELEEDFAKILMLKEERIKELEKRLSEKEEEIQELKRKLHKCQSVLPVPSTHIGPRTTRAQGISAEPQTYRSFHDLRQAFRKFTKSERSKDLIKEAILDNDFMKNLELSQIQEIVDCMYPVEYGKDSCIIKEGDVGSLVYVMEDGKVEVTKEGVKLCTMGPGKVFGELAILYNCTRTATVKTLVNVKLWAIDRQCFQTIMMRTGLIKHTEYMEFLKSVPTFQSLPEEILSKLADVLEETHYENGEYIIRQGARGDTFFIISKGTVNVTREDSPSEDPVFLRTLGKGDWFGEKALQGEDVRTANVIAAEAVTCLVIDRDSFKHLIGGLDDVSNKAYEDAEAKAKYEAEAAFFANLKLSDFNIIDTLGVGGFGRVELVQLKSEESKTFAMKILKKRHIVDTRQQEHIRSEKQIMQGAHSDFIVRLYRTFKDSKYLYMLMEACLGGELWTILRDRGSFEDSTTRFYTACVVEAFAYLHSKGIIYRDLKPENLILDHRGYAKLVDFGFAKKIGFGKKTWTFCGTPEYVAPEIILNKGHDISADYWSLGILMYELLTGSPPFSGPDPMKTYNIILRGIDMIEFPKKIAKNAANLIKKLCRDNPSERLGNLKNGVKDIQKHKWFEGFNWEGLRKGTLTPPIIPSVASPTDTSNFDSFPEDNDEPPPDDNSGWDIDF
row,SMILES,"kinase still bound, per cent of control [%]"
1,CCN1CCN(Cc2ccc(NC(=O)c3ccc(C)c(/C=C/c4cnc(Nc5cc(N6CCNCC6)nc(C)n5)cn4)c3)cc2C(F)(F)F)CC1,100
2,COc1cc(N2CCC(N3CCN(C)CC3)CC2)ccc1Nc1ncc(Cl)c(Nc2ccccc2S(=O)(=O)C(C)C)n1,1.3
3,CCOc1cc(N2CCC(N3CCCCC3)CC2)ccc1Nc1nc(Nc2ccccc2S(=O)(=O)C(C)C)c2cn[nH]c2n1,100

# Molecular target: STK3 (human) (UniProt Q13188)
# Experiment: KINOMEscan competition binding
# Settings: compound 10.0 µM
row,SMILES,"kinase still bound, per cent of control [%]"
1,CCN1CCN(Cc2ccc(NC(=O)c3ccc(C)c(/C=C/c4cnc(Nc5cc(N6CCNCC6)nc(C)n5)cn4)c3)cc2C(F)(F)F)CC1,100
2,COc1cc(N2CCC(N3CCN(C)CC3)CC2)ccc1Nc1ncc(Cl)c(Nc2ccccc2S(=O)(=O)C(C)C)n1,0.25
3,CCOc1cc(N2CCC(N3CCCCC3)CC2)ccc1Nc1nc(Nc2ccccc2S(=O)(=O)C(C)C)c2cn[nH]c2n1,100

# Molecular target: NEK5 (human) (UniProt Q6P3R8)
# Experiment: KINOMEscan competition binding
# Settings: compound 10.0 µM
# Chain of NEK5 (human) (Q6P3R8 whole entry, looked up): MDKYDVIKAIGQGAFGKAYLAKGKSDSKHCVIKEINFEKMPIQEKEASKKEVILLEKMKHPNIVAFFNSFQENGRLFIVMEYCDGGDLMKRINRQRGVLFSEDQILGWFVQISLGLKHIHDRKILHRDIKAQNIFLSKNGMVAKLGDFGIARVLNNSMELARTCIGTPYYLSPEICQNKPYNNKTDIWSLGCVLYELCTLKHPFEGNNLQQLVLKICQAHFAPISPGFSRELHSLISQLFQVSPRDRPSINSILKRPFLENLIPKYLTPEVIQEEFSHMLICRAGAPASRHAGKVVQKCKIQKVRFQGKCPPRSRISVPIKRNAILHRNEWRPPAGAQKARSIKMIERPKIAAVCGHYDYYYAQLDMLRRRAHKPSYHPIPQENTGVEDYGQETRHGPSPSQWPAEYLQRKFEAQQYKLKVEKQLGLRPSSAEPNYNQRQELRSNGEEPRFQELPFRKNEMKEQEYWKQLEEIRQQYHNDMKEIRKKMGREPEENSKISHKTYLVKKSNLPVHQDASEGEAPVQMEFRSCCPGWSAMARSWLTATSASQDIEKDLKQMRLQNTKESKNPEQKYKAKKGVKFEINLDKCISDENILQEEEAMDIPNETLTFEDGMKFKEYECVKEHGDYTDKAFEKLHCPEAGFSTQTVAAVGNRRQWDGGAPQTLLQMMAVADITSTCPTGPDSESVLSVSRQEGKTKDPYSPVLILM
row,SMILES,"kinase still bound, per cent of control [%]"
1,CCN1CCN(Cc2ccc(NC(=O)c3ccc(C)c(/C=C/c4cnc(Nc5cc(N6CCNCC6)nc(C)n5)cn4)c3)cc2C(F)(F)F)CC1,49
2,COc1cc(N2CCC(N3CCN(C)CC3)CC2)ccc1Nc1ncc(Cl)c(Nc2ccccc2S(=O)(=O)C(C)C)n1,40
3,CCOc1cc(N2CCC(N3CCCCC3)CC2)ccc1Nc1nc(Nc2ccccc2S(=O)(=O)C(C)C)c2cn[nH]c2n1,100

# Molecular target: LATS2 (human) (UniProt Q9NRM7)
# Experiment: KINOMEscan competition binding
# Settings: compound 10.0 µM
# Chain of LATS2 (human) (Q9NRM7 whole entry, looked up): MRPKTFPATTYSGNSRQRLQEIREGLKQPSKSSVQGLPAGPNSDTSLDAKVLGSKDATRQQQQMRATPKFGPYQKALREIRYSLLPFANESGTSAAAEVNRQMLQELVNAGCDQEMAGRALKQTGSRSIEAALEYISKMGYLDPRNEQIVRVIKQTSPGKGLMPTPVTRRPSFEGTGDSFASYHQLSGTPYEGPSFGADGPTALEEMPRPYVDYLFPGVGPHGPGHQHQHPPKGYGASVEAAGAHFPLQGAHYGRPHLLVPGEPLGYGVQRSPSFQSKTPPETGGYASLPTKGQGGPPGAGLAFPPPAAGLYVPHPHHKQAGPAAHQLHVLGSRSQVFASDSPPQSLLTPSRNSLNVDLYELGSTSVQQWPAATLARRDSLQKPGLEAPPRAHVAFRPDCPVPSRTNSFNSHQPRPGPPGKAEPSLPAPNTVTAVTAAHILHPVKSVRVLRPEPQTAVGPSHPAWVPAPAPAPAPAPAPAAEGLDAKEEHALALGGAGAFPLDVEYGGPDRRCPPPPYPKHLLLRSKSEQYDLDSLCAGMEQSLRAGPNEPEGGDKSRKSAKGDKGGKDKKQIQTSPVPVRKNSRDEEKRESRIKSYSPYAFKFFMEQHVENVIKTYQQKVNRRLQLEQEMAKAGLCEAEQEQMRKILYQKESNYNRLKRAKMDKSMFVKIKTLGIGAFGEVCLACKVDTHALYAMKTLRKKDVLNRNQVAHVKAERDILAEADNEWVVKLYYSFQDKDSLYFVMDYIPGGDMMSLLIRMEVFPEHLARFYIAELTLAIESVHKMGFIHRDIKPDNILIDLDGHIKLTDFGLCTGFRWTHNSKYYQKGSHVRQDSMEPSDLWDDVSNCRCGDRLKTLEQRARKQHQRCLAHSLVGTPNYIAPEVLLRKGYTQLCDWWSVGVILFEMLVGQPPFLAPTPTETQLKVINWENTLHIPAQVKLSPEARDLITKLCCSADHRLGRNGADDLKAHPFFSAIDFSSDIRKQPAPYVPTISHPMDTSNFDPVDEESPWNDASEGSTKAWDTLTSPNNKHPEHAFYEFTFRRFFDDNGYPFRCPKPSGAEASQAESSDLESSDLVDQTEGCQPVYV
row,SMILES,"kinase still bound, per cent of control [%]"
1,CCN1CCN(Cc2ccc(NC(=O)c3ccc(C)c(/C=C/c4cnc(Nc5cc(N6CCNCC6)nc(C)n5)cn4)c3)cc2C(F)(F)F)CC1,36
2,COc1cc(N2CCC(N3CCN(C)CC3)CC2)ccc1Nc1ncc(Cl)c(Nc2ccccc2S(=O)(=O)C(C)C)n1,17
3,CCOc1cc(N2CCC(N3CCCCC3)CC2)ccc1Nc1nc(Nc2ccccc2S(=O)(=O)C(C)C)c2cn[nH]c2n1,88
4,CCN1CCN(Cc2ccc(NC(=O)c3ccc(C)c(Oc4ccnc5[nH]ccc45)c3)cc2C(F)(F)F)CC1,13

# Molecular target: CDK8 (human) (UniProt P49336)
# Experiment: KINOMEscan competition binding
# Settings: compound 10.0 µM
# Chain of CDK8 (human) (P49336 whole entry, looked up): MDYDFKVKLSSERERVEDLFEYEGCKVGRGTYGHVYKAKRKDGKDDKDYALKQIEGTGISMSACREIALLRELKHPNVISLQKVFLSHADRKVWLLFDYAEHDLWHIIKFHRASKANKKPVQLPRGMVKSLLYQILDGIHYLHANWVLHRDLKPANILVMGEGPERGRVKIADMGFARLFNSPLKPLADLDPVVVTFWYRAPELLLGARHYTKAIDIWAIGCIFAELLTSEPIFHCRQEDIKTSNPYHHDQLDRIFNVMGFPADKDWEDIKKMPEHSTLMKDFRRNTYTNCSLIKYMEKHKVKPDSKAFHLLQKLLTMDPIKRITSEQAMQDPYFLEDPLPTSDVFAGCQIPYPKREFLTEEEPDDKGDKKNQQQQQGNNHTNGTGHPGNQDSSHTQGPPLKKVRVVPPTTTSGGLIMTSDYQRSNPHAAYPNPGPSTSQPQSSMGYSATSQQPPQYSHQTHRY
row,SMILES,"kinase still bound, per cent of control [%]"
1,CCN1CCN(Cc2ccc(NC(=O)c3ccc(C)c(/C=C/c4cnc(Nc5cc(N6CCNCC6)nc(C)n5)cn4)c3)cc2C(F)(F)F)CC1,3.6
2,COc1cc(N2CCC(N3CCN(C)CC3)CC2)ccc1Nc1ncc(Cl)c(Nc2ccccc2S(=O)(=O)C(C)C)n1,40
3,CCOc1cc(N2CCC(N3CCCCC3)CC2)ccc1Nc1nc(Nc2ccccc2S(=O)(=O)C(C)C)c2cn[nH]c2n1,100
4,CCN1CCN(Cc2ccc(NC(=O)c3ccc(C)c(Oc4ccnc5[nH]ccc45)c3)cc2C(F)(F)F)CC1,3.9
